Assay results from patent US20260232644A1, “Compositions Comprising an Inhibitor of Galectin-3” (University of Liverpool, priority 2023, published 2026).
Counter-ions that a name gives are not always drawn.

Key:
[1] = tested on: human breast cancer cells; conditions: by suppressing activation of NFKB induced by TNFα; cited from earlier work
human colon cancer cells = conditions: cited from earlier work
Galectin-3 = target: T1, Galectin-3 (Homo sapiens, UniProt P17931); test: Galectin-3 binding to asialofetuin (ASF) ELISA; conditions: for Inhibition of Galectin-3 binding to its ligand asialofetuin (ASF): Galectin-3 5 μg/ml, ASF 20 μg/ml, different concentrations of compound, ELISA; for IC50: read-out: IC50, inhibition of Galectin-3 binding to its ligand
T1 construct: made in house; host or cells: E. coli
Description: (§1) Effect of the inhibitors on galectin binding to its ligand asialo fetuin (ASF) was measured by galectin ELISA. Nanty-six well plates were coated overnight with 20 μg/ml ASF in coating buffer (15 mM Na2CO3 17 mM NaHCO3 pH 9.6.). The wells were washed twice with PBS and incubated with blocking buffer (1% BSA in PBS) for 1 hr. The supernatants were removed and replaced with 5 μg/ml recombinant human galectin without or with different concentrations of the compound inhibitors or lactose in blocking buffer for 1 hr at room temperature. The wells were washed and incubated with 1 μg/ml anti-galectin antibody for 2 hr. Following addition of HRP-conjugated secondary antibody for 1 hr, FAST OPD development solution was added for 15-20 minutes. The reaction was terminated by addition of 4M sulphuric acid. The plates were read at 492 nm (reference wavelength 595 nm) by a microplate reader.

full-length galectin-3 = target: T2, full-length galectin-3 (Homo sapiens, UniProt P17931); test: Tryptophan Fluorescence Spectroscopy (TFS) binding affinity, full-length Galectin-3
T2 construct: made in house; host or cells: E. coli
Description: The binding affinity of the inhibitors to galectin-3 was determined by Intrinsic Tryptophan Fluorescence Spectroscopy (TFS) exactly as we described recently [Sindrewicz, P., et al., Intrinsic tryptophan fluorescence spectroscopy reliably determines galectin-ligand interactions. Sci Rep, 2019. 9(1): p. 11851]. The Galectin-3 concentration used was 10 μM and the inhibitor titration concentrations were from 0 to 224 μM. DMSO/control buffer (PBS with 2 mM EDTA) titrations were performed and used for background subtraction.

[2] = tested on: human colon cancer SW620 cells; test: Galectin-3-mediated SW620 cell adhesion to HUVECs; assay type: cell-based; conditions: Galectin-3 2 μg/ml, various concentrations
Description: HUVEC cells at 1×10^5 cells/ml in EGM medium were seeded into 24 well plates pre-inserted with 13 mm glass coverslip. The cells were incubated at 37° C. at 5% CO2 for 24 hr for monolayer formation. AGA19+ or SW620 cell suspension (5×10^5 cells/ml in DMEM) was introduced with 5 μl/ml fluorescent cell labelling solution DiL for 30 min at 37° C. The fluorescent labelled cells were washed twice with PBS and resuspended into 1×10^5 cells/ml in DMEM. The cancer cell suspension was then introduced with galectin-3 (2 μg/ml) and various concentrations of the compound inhibitors at 37° C. for 1 hr. The wells were carefully washed twice with PBS to remove the non-adhesion cells before the cells in the wells were fixed with 2% paraformaldehyde for 10 min. The glass coverslip was carefully removed from the plate, placed on a glass slide. After addition of fluorescence mounting medium containing DAPI, fluorescence labelled cells were quantified under a fluorescence microscope.

[3] = tested on: human colon cancer SW620 cells; test: SW620 cell invasion through HUVECs (transwell); assay type: cell-based; conditions: Galectin-3 1 ug/ml, transwells, several concentrations
Description: HUVECs were plated at a density of 1.5×10^4 cells in 8 μm pore transwells in 24-well plate and cultured for three days to allow formation of tight monolayer. The integrity of HUVEC monolayer was confirmed by measuring TEER and only monolayers with TEER reading>800 Ω/cm^2 were used for the invasion assay. AGA19+ or SW620 cell suspension (5×10^5 cells/ml in DMEM) was introduced with 5 μl/ml fluorescent cell labelling solution DiL for 30 min at 37° C. The fluorescence labelled cells were washed twice with PBS and resuspended into 1×10^5 cells/ml in DMEM. […] The cells at the upper side of the trans-well inserts were gently removed with cotton swabs. The cells migrated to the bottom side of the transwells were fixed with 2% paraformaldehyde for 10 min. The trans-well membrane was removed and placed on glass slides. After addition of fluorescence mounting medium containing DAPI, the fluorescence labelled cells on the membrane were quantified under a fluorescence microscope.

[4] = tested on: human umbilical vein endothelial cells (HUVECs); test: Vascular cell tubule formation (angiogenesis); assay type: cell-based; conditions: Galectin-3 2 μg/ml, various concentrations
Description: Matrigel matrix (50 μl) was added to 96-well plates for 60 min at 37° C. to allow gel formation. HUVEC cells (1×10^5 cells/ml in 1:1 EGM/EBM2 media) was introduced to the plates without or with galectin-3 (2 μg/ml) or different concentrations of compound inhibitors for 24 hr at 37° C. Endothelial cell tube formation was examined with Laser Microscope. The total number of branching points and the sum of the lengths of tubes were measured.

[5] = tested on: human colon cancer SW620 cells; test: LDH release cytotoxicity assay, SW620; assay type: cell-based; conditions: various concentrations
Description: (§6) SW620 cells (5×10^4 cells/ml) were seeded into 96-well plate in DMEM (and incubated at 37° C. 5% CO2 for 24 hr. HUVECs (1.0×10^5 cells/ml) was seeded in EBM medium and incubated for 24-36 hr until they formed a monolayer. Compound inhibitors at different concentrations were then introduced to the cells (10× lysis buffer was included as maximum LDH activity control) for 24 hr. The culture medium was transferred to a new plate and was mixed with equal volume of reaction mixture provided in the kit for 30 min at room temperature before the absorbance was measured at 490 nm (reference 680 nm) by a spectrophotometer.

vascular HUVECs = test: LDH release cytotoxicity assay, HUVECs; assay type: cell-based, human; conditions: various concentrations
Description: as §6

[6] = tested on: THP-1 differentiated macrophages; test: Galectin-3-induced TNFα secretion from macrophages (ELISA); assay type: cell-based; conditions: Galectin-3 10 μg/ml, various concentrations
Description: (§2) Effect of the compound inhibitors on secretion of pro-inflammatory cytokines from macrophages were assessed in THP-1 monocyte differentiated macrophages. THP-1 cells were induced to differentiation into macrophages by incubation with 10 ng/ml PMA for 48 h at 37° C. The culture medium was then replaced with fresh medium without or with 10 μg/ml galectin-3 and various concentrations of the compound inhibitors for 24 h at 37° C. The culture medium was collected and the concentrations of TNFα and IL-1β in the culture medium were determined by TNFα and IL-1β ELISA.

[7] = tested on: THP-1 differentiated macrophages; test: Galectin-3-induced IL-1β secretion from macrophages (ELISA); assay type: cell-based; conditions: Galectin-3 10 μg/ml, various concentrations
Description: as §2

[8] = tested on: human lung cancer H1975 cells; test: Lung cancer cell adhesion to basement matrix; assay type: cell-based; conditions: for IC50: Homo sapiens, NCI-H1975; for Inhibition of H1975 cell adhesion to matrix: different concentrations
Description: (§3) Nanty-six well plates were coated with 50 μl Matrigel (1:30 diluted in PBS) at 37° C. for 1 hour.
(§4) Cancer cells, pre-labelled with fluorescent die DiI at 37° C. for 20 minutes, were washed twice with PBS and resuspended into 3×10^4 cells/ml in serum-free medium. The matrix-coated 96-well plates were washed twice with PBS before introduction of 100μ cell suspension with different concentrations of the inhibitors or PBS/DMSO (control) for 1 hour at 37° C. The plates were washed twice with PBS before three randomly selected Field of Views (FOVs) were recorded by fluorescence microscope and number of adhesion cells were quantified by Image J.

[9] = tested on: triple-negative breast cancer MDA-MB-231 cells; test: Triple-negative breast cancer cell adhesion to basement matrix; assay type: cell-based, human; conditions: for Effect on adhesion of galectin-3 knockout (Gal3KO) MDA-MB-231 cells: CRISPR/Cas9 Gal3KO cells; for Effect on adhesion of non-transfected (con) MDA-MB-231 cells: control cells; for Inhibition of MDA-MB-231 cell adhesion to matrix: different concentrations
Description: as §3, §4
(§5) MDAMB-231 or PANC-1 cells were seeded into 6-well plate (2×10^5 cells) and cultured at 37° C. for 24 hour. Galectin-3 CRISPR Cas9 Knockout plasmid (2 μg) and galectin-3 HDR plasmid (2 μg) was mixed with Plasmid Transfection Medium (21 μl) for 5 minutes before addition to a mixture of lipofectamine STEM Transfection Reagent (STEM00001) (1 μl) and Plasmid Transfection Medium (25 μl) for 10 minutes at room temperature. The cells in the 6-well plates were washed and introduced with the Plasmid DNA/Lipofectamine STEM Transfection Reagent complex at 37° C. for 24 hour. The culture medium was replaced with fresh antibiotics-free medium for further 24 hour before introduction of 10 μg/mL puromycin-containing medium every three days. Successful co-transfection of the CRISPR/Cas9 KO Plasmid and HDR Plasmid was confirmed by expression of red fluorescence protein of the cells. Galectin-3 knockout in the cells was further confirmed by immunoblotting.

[10] = tested on: human pancreatic cancer PANC1 cells; test: Pancreatic cancer cell adhesion to basement matrix; assay type: cell-based; conditions: for Effect on adhesion of galectin-3 knockout (Gal3KO) PANC1 cells: CRISPR/Cas9 Gal3KO cells; for Effect on adhesion of non-transfected (con) PANC1 cells: control cells; for Inhibition of PANC1 cell adhesion to matrix: different concentrations
Description: as §3, §4, §5

Galectin-8 = target: T3, Galectin-8 (Homo sapiens, UniProt O00214); test: Galectin-8 binding to asialofetuin ELISA; conditions: Gal-8 5 μg/ml, ASF 20 μg/ml
T3 construct: purchased R&D Systems (Abingdon, UK)
T3 sequence (O00214 1-317): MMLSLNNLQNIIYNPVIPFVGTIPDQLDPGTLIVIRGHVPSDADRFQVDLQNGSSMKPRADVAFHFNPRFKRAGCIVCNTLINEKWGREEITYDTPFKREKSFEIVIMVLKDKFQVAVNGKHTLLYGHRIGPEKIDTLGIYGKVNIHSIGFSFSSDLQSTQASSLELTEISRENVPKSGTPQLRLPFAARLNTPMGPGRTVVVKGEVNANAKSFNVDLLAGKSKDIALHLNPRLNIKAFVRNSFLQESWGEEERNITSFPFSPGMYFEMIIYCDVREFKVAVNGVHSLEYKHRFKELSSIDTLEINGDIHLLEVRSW
Description: as §1

T1 sequence (P17931 whole entry): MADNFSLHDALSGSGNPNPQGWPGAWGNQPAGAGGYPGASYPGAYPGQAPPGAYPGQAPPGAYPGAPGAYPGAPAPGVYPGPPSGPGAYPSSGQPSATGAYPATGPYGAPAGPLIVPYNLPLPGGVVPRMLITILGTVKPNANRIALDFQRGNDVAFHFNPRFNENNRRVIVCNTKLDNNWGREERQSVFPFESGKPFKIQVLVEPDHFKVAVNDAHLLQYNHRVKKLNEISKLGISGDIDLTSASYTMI
T2 sequence (P17931 whole entry): as above

SMILES	Inhibition of Galectin-3 binding to its ligand asialofetuin (ASF) (Galectin-3)	IC50 (Galectin-3) [µM]	Kd (full-length galectin-3) [µM]	Inhibition of SW620 cell adhesion to HUVECs [2]	Inhibition of galectin-3-mediated invasion of SW620 cells through HUVECs [3]	Inhibition of tubule numbers [4]	Inhibition of vascular tubule length [4]	Cytotoxicity to SW620 cells (LDH release) [5]	Cytotoxicity to HUVEC cells (LDH release) (vascular HUVECs)	Inhibition of galectin-3-induced TNFα secretion [6]	Inhibition of galectin-3-induced IL-1β secretion [7]	IC50 [8] [µM]	Inhibition of H1975 cell adhesion to matrix [8]	Effect on adhesion of galectin-3 knockout (Gal3KO) MDA-MB-231 cells [9]	Effect on adhesion of non-transfected (con) MDA-MB-231 cells [9]	Inhibition of MDA-MB-231 cell adhesion to matrix [9]	Effect on adhesion of galectin-3 knockout (Gal3KO) PANC1 cells [10]	Effect on adhesion of non-transfected (con) PANC1 cells [10]	Inhibition of PANC1 cell adhesion to matrix [10]	other results
CO/N=C1\CN(c2nc3c(cc2F)c(=O)c(C(=O)O)cn3C2CC2)CC1CN (stereo not drawn) [Formula W, Gemifloxacin]																				Effect on migration, invasion and metastasis in human breast cancer cells [1]: inhibit migration, invasion and metastasis; Effect on migration and invasion of human colon cancer cells (human colon cancer cells): inhibit migration and invasion
Cc1c(O)cccc1C(=O)N[C@@H](CSc1ccccc1)[C@H](O)CN1C[C@H]2CCCC[C@H]2C[C@H]1C(=O)NC(C)(C)C [Formula Y, Nelfinavir mesylate]	inhibit galectin-3 binding to ASF in a dose-dependent manner	≤ 10	~90	dose-dependent inhibition	dose-dependent inhibition	dose-dependent inhibition	dose-dependent inhibition	little or low toxicity	little or low toxicity	dose-dependent inhibition	dose-dependent inhibition	~5	dose-dependent inhibition	lost their inhibitory effect	significant reduction	dose-dependent inhibition	lost their inhibitory effect	significant reduction	dose-dependent inhibition	IC50 ([9]; Homo sapiens, MDA-MB-231): ~10 µM
CN(C)CCOc1ccc(/C(=C(/CCCl)c2ccccc2)c2ccccc2)cc1 [Formula Z, Toremifene citrate]	inhibit galectin-3 binding to ASF in a dose-dependent manner	≤ 10	~35	dose-dependent inhibition	dose-dependent inhibition	dose-dependent inhibition	dose-dependent inhibition	low cytotoxicity	low cytotoxicity	dose-dependent inhibition	dose-dependent inhibition	5 to 10	dose-dependent inhibition	lost their inhibitory effect	significant reduction	dose-dependent inhibition	lost their inhibitory effect	significant reduction	dose-dependent inhibition	
OC[C@H]1O[C@@H](O[C@H]2[C@H](O)[C@@H](O)C(O)O[C@@H]2CO)[C@H](O)[C@@H](O)[C@H]1O (stereo partly drawn) [lactose]																				Effect on Galectin-8 binding to asialofetuin (Galectin-8): dose-dependently inhibits
